Patent publication US5051253A, “Use of polyacrylates to reduce proteolytic activity in the human intestinal tract” (Reckitt & Colman Products Limited, priority 1988, dated 1991)
Where two headings read alike, the source gives them in different places.

System: faecal proteolytic activity
Assay: Human faecal proteolytic activity (in-vitro), succinyl albumin substrate
Type: biochemical
Protocol: Human faecal extracts (from asymptomatic volunteers) were obtained by suspending samples of stool in 4 volumes of M/15M KH2 PO4 /Na2 HPO4 pH 7.5 containing 50 mM NaCl and centrifuging at 10,000 g for 15 minutes at 4° C. The supernatant was retained as the faecal extract.
Proteolytic activity was measured using a modification of the method of Lin et al, J.Biol.Chem. 244 (4), 789-793 (1969), i.e. a sensitive trinitrobenzene sulphonic acid assay for formation of new peptide N-terminals using succinyl albumin as substrate. Faecal extract containing one unit of protease activity (equivalent to 1 μg trypsin) was mixed with 0.5 ml buffer (M/15 phosphate pH 7.5) or inhibitor. Substrate (0.5 ml, 8 mgml^-1 succinyl albumin) was added to start the reaction and samples were incubated for 30 minutes at 37° C. Four per cent (w/v) sodium bicarbonate (0.5 ml) and 0.05% (w/v) trinitrobenzene sulphonic acid were added to trinitrophenylate the free amino groups formed and samples were incubated at 50° C. for 10 minutes to develop colour.
10% (w/v) Sodium dodecyl sulphate (0.5 ml) and 1M HCl (0.25 ml) were added to complete the reaction. Absorbance at 340 nm was measured. All samples were compared with heat inactivated faecal extract controls (100° C., 10 minutes).
A linear increase in N-terminals formed by proteolytic cleavage of peptide bonds was found over the first 30 minutes of digestion. […] Proteolytic activity in faecal extracts against succinyl albumin was inhibited by soybean trypsin inhibitor (1 μg) and P.M.S.F. (1 mM) but not by iodoacetamide (50 mM) or Na2 E.D.T.A. (10 mM). In view of this, levels of faecal protease activity were subsequently quantified as equivalents of porcine pancreatic trypsin activity by weight.

O=C(O)CN(CCN(CC(=O)O)CC(=O)O)CC(=O)O [Na2 E.D.T.A.]
Inhibition of proteolytic activity in faecal extracts against succinyl albumin: not

O=S(=O)(F)Cc1ccccc1 [P.M.S.F., phenylmethylsulphonyl fluoride]
Inhibition of proteolytic activity in faecal extracts against succinyl albumin (1 mM): inhibited

NC(=O)CI [iodoacetamide]
Inhibition of proteolytic activity in faecal extracts against succinyl albumin (50 mM): not

B1: soybean trypsin inhibitor (protein, UniProt P01070 25-205, looked up)
Trypsin inhibitor A: DFVLDNEGNPLENGGTYYILSDITAFGGIRAAPTGNERCPLTVVQSRNELDKGIGTIISSPYRIRFIAEGHPLSLKFDSFAVIMLCVGIPTEWSVVEDLPEGPAVKIGENKDAMDGWFRLERVSDDEFNNYKLVFCPQQAEDDKCGDIGISIDHDDGTRRLVVSKNKPLVVQFQKLDKESL
Inhibition of proteolytic activity in faecal extracts against succinyl albumin (1 μg): inhibited
